In brackets after ≈: the same amount, converted by molar mass.
Legend:
Assay in all cases: MIC, agar incorporation method
VRE 6A = type: cell-based, Enterococcus faecium; conditions: VRE 6A; agar incorporation
Description: (§1) The compounds of the invention display antibacterial activity when tested by the agar incorporation method. The following minimum inhibitory concentrations (μg/ml) were obtained for representative compounds of the invention which are given below in the following tables.
(§2) • 1) S.aureus ATCC 25923—Staphylococus aureus ATCC 25923 • 2) MRSA 15187—Methicillin Resistant Staphylococcus aureus • 3) Ent. faecalis ATCC 29212—Enterococcus faecalis ATCC 29212 • 4) Ent. faecium 6A—Enterococcus faecium 6A Van®, Cipro® • 5) Strep. pne. ATCC 6303—Streptococcus pneumoniae ATCC 6303 • 6) Strep. pyog. ATCC 19615—Streptococcus pyogenes • 7) S. epidermidis—Staphylococcus epidermidis ATCC 12228
(§3) Briefly, the compounds were dissolved in DMSO and doubling dilution of the compounds were incorporated into Meuller Hilton agar before solidification. Inoculum was prepared by suspending 4 to 5 colonies into 5 ml of normal saline solution and adjusting the turbidity to 0.5 Macfarland turbidity standard tables (1.5×10^8 CFU/ml), after appropriate dilutions, 10^4 CFU/spot was transfered into the surface of dried plate and incubated for 18 hours (24 hours for MRSN studies). The concentration showing no growth of the inoculated culture was recorded as the MIC. Appropriate ATCC standard strains were simultaneously tested and result recorded only when the MIC's against standard antibiotics were within the acceptable range.

MRSA 15187 = type: cell-based, Staphylococcus aureus; conditions: MRSA 15187; agar incorporation
Description: as §1, §2, §3

S. aureus 25923 = type: cell-based, Staphylococcus aureus; conditions: S. aureus 25923; agar incorporation
Description: as §1, §2, §3

E. faecalis 29212 = type: cell-based, Enterococcus faecalis; conditions: E. faecalis 29212; agar incorporation
Description: as §1, §2, §3

MRSA 33 = type: cell-based, Staphylococcus aureus; conditions: MRSA 33; agar incorporation
Procedure: as §1, §3

S. pneum AB 34 = type: cell-based, Streptococcus pneumoniae; conditions: S. pneum AB 34; agar incorporation
Procedure: as §1, §3

S. pneum 6303 = type: cell-based, Streptococcus pneumoniae; conditions: S. pneum 6303; agar incorporation
Description: as §1, §2, §3

S. pyogenes 19615 = type: cell-based, Streptococcus pyogenes; conditions: S. pyogenes 19615; agar incorporation
Description: as §1, §2, §3

MRSA 562 = type: cell-based, Staphylococcus aureus; conditions: MRSA 562; agar incorporation; Table 1
Procedure: as §1, §3

MIC (VRE 6A) | MIC (MRSA 15187) | MIC (S. aureus 25923) | MIC (E. faecalis 29212) | MIC (MRSA 33) | MIC (S. pneum AB 34) | MIC (S. pneum 6303) | MIC (S. pyogenes 19615) | MIC (MRSA 562) | SMILES
8 µg/mL (≈ 16.7 µM) | 4 µg/mL (≈ 8.35 µM) | 16 µg/mL (≈ 33.4 µM) | 8 µg/mL (≈ 16.7 µM) | 4 µg/mL (≈ 8.35 µM) | 4 µg/mL (≈ 8.35 µM) | 4 µg/mL (≈ 8.35 µM) | 4 µg/mL (≈ 8.35 µM) |  | CC(=O)NC[C@H]1CN(c2ccc(N3CCN(C(=O)c4ccc(CCl)o4)CC3)c(F)c2)C(=O)O1 [Compound No. 05, (S)-N-[[3-Fluoro-4-[N-1[4-(5-chloromethyl-2-furoyl)piperazinyl]phenyl]-2-oxo-5-oxazolidinyl]methyl]acetamide]
4 µg/mL (≈ 7.82 µM) | 2 µg/mL (≈ 3.91 µM) | 2 µg/mL (≈ 3.91 µM) | 2 µg/mL (≈ 3.91 µM) | 2 µg/mL (≈ 3.91 µM) | 0.5 µg/mL (≈ 0.978 µM) | 2 µg/mL (≈ 3.91 µM) | 1 µg/mL (≈ 1.96 µM) | 2 µg/mL (≈ 3.91 µM) | CC(=O)NC[C@H]1CN(c2ccc(N3CCN(Cc4ccc(Br)s4)CC3)c(F)c2)C(=O)O1 [Compound No. 27]
16 µg/mL (≈ 31.8 µM) | 2 µg/mL (≈ 3.98 µM) | 2 µg/mL (≈ 3.98 µM) | 16 µg/mL (≈ 31.8 µM) | 2 µg/mL (≈ 3.98 µM) | 8 µg/mL (≈ 15.9 µM) | 8 µg/mL (≈ 15.9 µM) | 8 µg/mL (≈ 15.9 µM) | 2 µg/mL (≈ 3.98 µM) | CC(=O)NC[C@H]1CN(c2ccc(N3CCN(Cc4ccc(C5OCCCO5)o4)CC3)c(F)c2)C(=O)O1 [Compound No. 66]
4 µg/mL (≈ 7.99 µM) | 4 µg/mL (≈ 7.99 µM) | 4 µg/mL (≈ 7.99 µM) | 4 µg/mL (≈ 7.99 µM) | 4 µg/mL (≈ 7.99 µM) | 1 µg/mL (≈ 2 µM) | 1 µg/mL (≈ 2 µM) | 1 µg/mL (≈ 2 µM) | 4 µg/mL (≈ 7.99 µM) | CC(=O)NC[C@H]1CN(c2ccc(N3C[C@@H]4[C@@H](CN(C)C(=O)Cc5cccs5)[C@@H]4C3)c(F)c2)C(=O)O1 [Compound No. 38, (S)-N-[[3-[3-Fluoro[4-[3-(1α,5α,6α)-6-[N-(2-thiopheneacetyl)-N-methyl]aminomethyl]-3-azabicyclo-[3.1.0]hexane]phenyl]-2-oxo-5-oxazolidinyl]methyl]acetamide]
8 µg/mL (≈ 16.8 µM) | 8 µg/mL (≈ 16.8 µM) | 8 µg/mL (≈ 16.8 µM) | 8 µg/mL (≈ 16.8 µM) | 8 µg/mL (≈ 16.8 µM) | 8 µg/mL (≈ 16.8 µM) | 8 µg/mL (≈ 16.8 µM) | 1 µg/mL (≈ 2.09 µM) |  | CC(=O)NC[C@H]1CN(c2ccc(N3CCN(Cc4ccc([N+](=O)[O-])s4)CC3)c(F)c2)C(=O)O1 [Compound No. 23, (S)-N[[3-[3-Fluoro-4-[N-1[4-{2-thienyl(5-nitro)methyl}]piperazinyl]phenyl]2-oxo-5-oxazolidinyl]methyl]acetamide]
8 µg/mL (≈ 15.5 µM) | 8 µg/mL (≈ 15.5 µM) | 8 µg/mL (≈ 15.5 µM) | 2 µg/mL (≈ 3.86 µM) | 4 µg/mL (≈ 7.73 µM) | 0.5 µg/mL (≈ 0.966 µM) | 0.5 µg/mL (≈ 0.966 µM) | 0.5 µg/mL (≈ 0.966 µM) | 8 µg/mL (≈ 15.5 µM) | CC(=O)NC[C@H]1CN(c2ccc(N3C[C@@H]4[C@@H](CN(C)Cc5ccc([N+](=O)[O-])s5)[C@@H]4C3)c(F)c2)C(=O)O1 [Compound No. 39, (S)-N-[[3-[3-Fluorol[4-[3-(1α,5α,6α)-6-[N-(5-nitro-2-thienyl-methyl)-N-methyl]aminomethyl]-3-azabicyclo-[3.1.0]hexane]phenyl]-2-oxo-5-oxazolidinyl]methyl]acetamide]
16 µg/mL (≈ 34.8 µM) | 2 µg/mL (≈ 4.35 µM) | 2 µg/mL (≈ 4.35 µM) | 8 µg/mL (≈ 17.4 µM) | 2 µg/mL (≈ 4.35 µM) | 8 µg/mL (≈ 17.4 µM) | 8 µg/mL (≈ 17.4 µM) | 4 µg/mL (≈ 8.71 µM) |  | CC(=O)NC[C@H]1CN(c2ccc(N3CCN(Cc4ccc(C=NO)o4)CC3)c(F)c2)C(=O)O1 [Compound No. 60, (S)-N-[[3-[3-Fluoro-4-[N-1-[4-(2-furyl-(5-aldoxime)methyl}]piperazinyl]phenyl]-2-oxo-5-oxazolidinyl]methyl]acetamide]
8 µg/mL (≈ 17 µM) | 4 µg/mL (≈ 8.5 µM) | 8 µg/mL (≈ 17 µM) | 8 µg/mL (≈ 17 µM) | 4 µg/mL (≈ 8.5 µM) | 4 µg/mL (≈ 8.5 µM) | 4 µg/mL (≈ 8.5 µM) | 0.25 µg/mL (≈ 0.531 µM) |  | CC(=O)NC[C@H]1CN(c2ccc(N3CC4C(C3)C4N(C)Cc3ccc(C=O)o3)c(F)c2)C(=O)O1 (stereo partly drawn) [Compound No. 72, (S)-N-[[3-[3-Fluoro[4-[3-(1α,5α,6α)-6-[N-(5-formyl-2-furylmethyl)-N-methyl]amino]-3-azabicyclo-[3.1.0]hexane]phenyl]-2-oxo-5-oxazolidinyl]methyl]acetamide]
8 µg/mL (≈ 12.3 µM) | 8 µg/mL (≈ 12.3 µM) | 8 µg/mL (≈ 12.3 µM) | 8 µg/mL (≈ 12.3 µM) | 8 µg/mL (≈ 12.3 µM) | 8 µg/mL (≈ 12.3 µM) | 8 µg/mL (≈ 12.3 µM) | 8 µg/mL (≈ 12.3 µM) |  | COC(=O)Cc1ccc(NC(=O)ON=Cc2ccc(CN3CCN(c4ccc(N5C[C@H](CNC(C)=O)OC5=O)cc4F)CC3)o2)cc1 [Compound No. 61]
4 µg/mL (≈ 7.91 µM) | 1 µg/mL (≈ 1.98 µM) | 2 µg/mL (≈ 3.96 µM) | 4 µg/mL (≈ 7.91 µM) | 1 µg/mL (≈ 1.98 µM) | 2 µg/mL (≈ 3.96 µM) |  | 0.5 µg/mL (≈ 0.989 µM) | 1 µg/mL (≈ 1.98 µM) | CC(=O)NC[C@H]1CN(c2ccc(N3CCC(N(C)Cc4ccc([N+](=O)[O-])s4)CC3)c(F)c2)C(=O)O1 [Compound No. 51, (S)-N-[[3-[4-[4-(N-methyl-N-2-thienyl(5-nitro)methyl)-aminopiperidine-1-yl]-3-fluorophenyl]-2oxo-oxazolidin-5-yl]methyl]acetamide]
8 µg/mL (≈ 16.9 µM) | 8 µg/mL (≈ 16.9 µM) | 8 µg/mL (≈ 16.9 µM) | 8 µg/mL (≈ 16.9 µM) | 8 µg/mL (≈ 16.9 µM) | 8 µg/mL (≈ 16.9 µM) | 4 µg/mL (≈ 8.46 µM) | 1 µg/mL (≈ 2.12 µM) |  | CC(=O)NC[C@H]1CN(c2ccc(N3CC4C(C3)C4N(C)C(=O)c3ccsc3)c(F)c2)C(=O)O1 (stereo partly drawn) [Compound No. 73, (S)-N-[[3-[3-Fluoro[4-[3-(1α,5α,6α)-6-[N-(3-thienoyl)-N-methyl]amino]-3-azabicyclo-[3.1.0]hexane]phenyl]-2-oxo-5-oxazolidinyl]methyl]acetamide]
2 µg/mL (≈ 4.65 µM) | 2 µg/mL (≈ 4.65 µM) | 2 µg/mL (≈ 4.65 µM) | 2 µg/mL (≈ 4.65 µM) | 4 µg/mL (≈ 9.29 µM) | 1 µg/mL (≈ 2.32 µM) | 2 µg/mL (≈ 4.65 µM) | 1 µg/mL (≈ 2.32 µM) |  | CC(=O)NC[C@H]1CN(c2ccc(N3CCN(C(=O)c4ccco4)CC3)c(F)c2)C(=O)O1 [Compound No. 01, (S)-N-[[3-[3-Fluoro-4-[N-1-[4-(2-furoyl)piperazinyl]]-phenyl]-2-oxo-5-oxazolidinyl]methyl]acetamide]
8 µg/mL (≈ 17.5 µM) | 8 µg/mL (≈ 17.5 µM) | 8 µg/mL (≈ 17.5 µM) | 8 µg/mL (≈ 17.5 µM) | 8 µg/mL (≈ 17.5 µM) | 4 µg/mL (≈ 8.76 µM) | 4 µg/mL (≈ 8.76 µM) | 1 µg/mL (≈ 2.19 µM) |  | CC(=O)NC[C@H]1CN(c2ccc(N3CC4C(C3)C4N(C)C(=O)c3ccoc3)c(F)c2)C(=O)O1 (stereo partly drawn) [Compound No. 32, (S)-N-[[3-[3-Fluoro[4-[3-(1α, 5α, 6α)-6-[N-(3-furoyl)-N-methyl]amino]-3-azabicyclo-[3.1.0]hexane]phenyl]-2-oxo-5-oxazolidinyl]methyl]acetamide]
4 µg/mL (≈ 7.47 µM) | 4 µg/mL (≈ 7.47 µM) | 4 µg/mL (≈ 7.47 µM) | 4 µg/mL (≈ 7.47 µM) | 4 µg/mL (≈ 7.47 µM) | 4 µg/mL (≈ 7.47 µM) | 8 µg/mL (≈ 14.9 µM) | 0.5 µg/mL (≈ 0.934 µM) |  | CC(=O)NC[C@H]1CN(c2ccc(N3C[C@@H]4[C@H](C3)[C@H]4N(C)C(=O)c3ccc(Br)o3)c(F)c2)C(=O)O1 [Compound No. 33, (S)-N-[[3-[3-Fluoro[4-[3-(1α,5α,6α)-6-[N-(5-bromo-2-furoyl)-N-methyl]amino]-3-azabicyclo-[3.1.0]hexane]phenyl]-2-oxo-5-oxazolidinyl]methyl]acetamide]
4 µg/mL (≈ 8.57 µM) | 4 µg/mL (≈ 8.57 µM) | 8 µg/mL (≈ 17.1 µM) | 8 µg/mL (≈ 17.1 µM) | 4 µg/mL (≈ 8.57 µM) | 8 µg/mL (≈ 17.1 µM) | 4 µg/mL (≈ 8.57 µM) | 1 µg/mL (≈ 2.14 µM) |  | CC(=O)NC[C@H]1CN(c2ccc(N3CCN(Cc4ccc(Cl)s4)CC3)c(F)c2)C(=O)O1 [Compound No. 10, (S)-N[[3-[3-Fluoro-4-[N-1[4-{2-thienyl(5-chloro)methyl}]-piperazinyl]phenyl]2-oxo-5-oxazolidinyl]methyl]acetamide]

SMILES | MIC (VRE 6A) | MIC (MRSA 15187) | MIC (S. aureus 25923) | MIC (E. faecalis 29212) | MIC (MRSA 33) | MIC (S. pneum AB 34) | MIC (S. pneum 6303) | MIC (S. pyogenes 19615) | MIC (MRSA 562)
CC(=O)NC[C@H]1CN(c2ccc(N3CCN(Cc4ccc([N+](=O)[O-])o4)CC3)c(F)c2)C(=O)O1.O=C(O)CC(O)(CC(=O)O)C(=O)O [Compound No. 17] | 4 µg/mL | 2 µg/mL | 2 µg/mL | 2 µg/mL | 2 µg/mL | 1 µg/mL | 2 µg/mL | 1 µg/mL | 

From patent US6956040B2, “Oxazolidinone piperazinyl derivatives as potential antimicrobials” (Ranbaxy Laboratories Limited, priority 2001, dated 2005)
